Data as given in patent US9944740B2, “Sugar containing, amphiphilic copolymers” (REGENTS OF THE UNIVERSITY OF MINNESOTA, priority 2013, dated 2018).
Converted amounts (≈) assume the structure as drawn.

Key:
[1] = Phenytoin dissolution study (spray dried dispersions or crystalline API) in phosphate buffer pH 6.5 with simulated intestinal fluid powder, 37° C., HPLC; format: physicochemical; conditions: crystalline phenytoin
Method: (§1) Samples (either spray dried dispersions or crystalline API as received) were weighed into 2.0 mL conical microcentrifuge tubes in duplicate. Phosphate buffer solution (82 mM sodium chloride, 20 mM sodium phosphate dibasic, 47 mM potassium phosphate monobasic, 0.5 wt % simulated intestinal fluid powder, pH 6.5) at 37° C. was added in an amount that would produce a final concentration of drug of 1000 mg/L if all material was fully dissolved (e.g., 7.2 mg of spray dried dispersion consisting of 1.8 mg griseofulvin and 5.4 mg polymer was diluted with 1.8 mL buffer solution). Samples were vortexed 1 min and set in an isothermal aluminum sample holder set at 37° C. At each time point, samples were centrifuged 1 min at >13,000×g (g=gravitational force on earth), and a 50 μl aliquot was removed and diluted with 250 μl methanol. The samples were again vortexed 30 s and held at 37° C. until the next time point. Drug concentration in each aliquot was determined by reverse phase HPLC.
Probucol and phenytoin concentrations were quantified using a Agilent 1260 Infinity Quaternary HPLC equipped. The HPLC consisted of a reversed-phase EC-C18 column (Poroshell 120, 4.6×50 mm, 2.7 μm, Agilent, USA). The mobile phase was acetonitrile: water 96:4 for probucol and acetonitrile: water 40:60 for phenytoin, and the flow rate was 1.0 mL/min. A 10 μL aliquot of sample was injected, and the column effluent was detected at 241 nm for probucol (eluted at 2.90 min) and 225 nm for phenytoin (eluted at 1.40 min) with a UV detector (1260 Infinity Multiple Wavelength Detector, Agilent). The standard curve linearity was verified from 0.1 to 1000 μg/mL with an r^2 value of at least 0.999.
Two different drugs, probucol and phenytoin, were formulated at different weight percent, using the polymers disclosed herein (see Table 1 for polymer sample numbers). […]

[2] = Probucol dissolution study (spray dried dispersions or crystalline API) in phosphate buffer pH 6.5 with simulated intestinal fluid powder, 37° C., HPLC; format: physicochemical; conditions: pH 6.5, fassif, thermodynamic from solid
Method: as §1
Probucol and phenytoin concentrations were quantified using a Agilent 1260 Infinity Quaternary HPLC equipped. […] A 10 μL aliquot of sample was injected, and the column effluent was detected at 241 nm for probucol (eluted at 2.90 min) and 225 nm for phenytoin (eluted at 1.40 min) with a UV detector (1260 Infinity Multiple Wavelength Detector, Agilent). […]

Concentration (phenytoin dissolution control) ([1]; Time 0) [ng/mL] | Concentration (phenytoin dissolution control) ([1]; Time 4) [ng/mL] | Concentration (phenytoin dissolution control) ([1]; Time 10) [ng/mL] | Concentration (phenytoin dissolution control) ([1]; Time 20) [ng/mL] | Concentration (phenytoin dissolution control) ([1]; Time 40) [ng/mL] | Concentration (phenytoin dissolution control) ([1]; Time 90) [ng/mL] | Concentration (phenytoin dissolution control) ([1]; Time 180) [ng/mL] | Concentration (phenytoin dissolution control) ([1]; Time 360) [ng/mL] | solubility [2] [µg/mL] | SMILES
0 | 38000 | 46000 | 45000 | 48000 | 51000 | 45000 | 48000 | – | O=C1NC(=O)C(c2ccccc2)(c2ccccc2)N1 [Phenytoin, phenytoin]
– | – | – | – | – | – | – | – | 4 (≈ 7.74 µM) | CC(C)(Sc1cc(C(C)(C)C)c(O)c(C(C)(C)C)c1)Sc1cc(C(C)(C)C)c(O)c(C(C)(C)C)c1 [probucol]
